Literature values, collected in patent publication US20190282513A1, “COMPOUND FOR USE IN RELIEF OF PAIN AND METHOD TO PRODUCE THEREOF” (priority 2018, published 2019).

Assays:
[1] = compared with ibuprofen
[2] = taken orally

| SMILES | anti-inflammatory properties [1] | anti-inflammatory analgesic effect in cancer-related pain | treatment of chronic pain [2] |
| --- | --- | --- | --- |
| C/C=C(/C=O)[C@@H](CC=O)CC(=O)OCCc1ccc(O)cc1 [oleocanthal] | anti-inflammatory properties similar to ibuprofen |  |  |
| C=C(C)[C@@H]1CCC(C)=C[C@H]1c1c(O)cc(CCCCC)cc1O [CBD, cannabidiol] |  | effective anti-inflammatory analgesic | effectively treated chronic pain |
